Positions of bridges follow the written chain, without caps; N, C: chain ends. Non-standard residues stand in square brackets, D forms with d. Residues, ends and D or L forms follow the SMILES beside them. Pen = CC(C)(S)[C@H](N)C(=O)O; Orn = NCCC[C@H](N)C(=O)O; Ac5c = NC1(C(=O)O)CCCC1; Aib = CC(C)(N)C(=O)O
Columns and labels:
KB (Oral) = assay: three day MTT cytotoxicity assay, KB; format: cell-based, human; details: 72 hours
Procedure: (§1) SEQ ID NO: 5 and SEQ ID NO: 7 were tested for cytotoxicity against 6 human tumor cell lines. Briefly, a three day MTT cytotoxicity assay was performed, which is based on the principle of uptake of MTT (3-(4,5-dimethylthiazol-2-yl)-2,5-diphenyl tetrazolium bromide), a tetrazolium salt, by the metabolically active cells where it is metabolized by active mitochondria into a blue colored formazan product that is read spectrophoto-metrically. MTT was dissolved in phosphate buffered saline with a pH of 7.4 to obtain an MTT concentration of 5 mg/ml; the resulting mixture was filtered through a 0.22 micron filter to sterilize and remove a small amount of insoluble residue. For each type of tumor cell, 20,000 to 50,000 cells were seeded in a 96-well culture plate and incubated with the drug in a CO2 incubator for 72 hours. The final concentration range of SEQ ID NO: 5 and SEQ ID NO: 7 was 1 nM to 10 μM. The drug was added at time 0, 24 and 48 hours. Control cells not treated with the drug were similarly incubated. The assay was terminated after 72 hours by adding 100 ug (20 ul) of MTT to each well, then incubating for additional one hour, and finally adding 50 ul of 10% SDS-0.01N HCl to each well to lyse the cells and dissolve formazan. After incubating for one hour, the plate was read spectrophotometrically at 540 nm and the cytotoxicity percentage calculated. The following Tables 1 and 2 show the dose response of SEQ ID NO: 5 and SEQ ID NO: 7 respectively along with their respective ED50 values on different tumor cell lines.

MiaPaCa.2 (Pancreas) = assay: three day MTT cytotoxicity assay, MiaPaCa.2; format: cell-based, human; details: 72 hours
Procedure: as §1

PTC (Colon) = assay: three day MTT cytotoxicity assay, PTC; format: cell-based, human; details: 72 hours
Procedure: as §1

L132 (Lung) = assay: three day MTT cytotoxicity assay, L132; format: cell-based, human; details: 72 hours
Procedure: as §1

MCF-7 (Breast) = assay: three day MTT cytotoxicity assay, MCF-7; format: cell-based, human; details: 72 hours
Procedure: as §1

MOLT-4 (Leukemia) = assay: three day MTT cytotoxicity assay, MOLT-4; format: cell-based, human; details: 72 hours
Procedure: as §1

[1] = system: PTC (colon) tumor xenografts; assay: antitumor activity on PTC (colon) tumor xenografts grown in nude mice; format: in vivo, Balb/c athymic mice; details: 50 μg twice a day (total 100 μg), 14 days, compared to untreated mice
Procedure: PTC (colon) tumor xenografts were initiated in Balb/c athymic mice by subcutaneous inoculation of a single cell suspension of PTC cells(15×10^6 cells/[…]). When the average tumor volume reached around 2000 mm^3 the tumor-bearing mice were divided into three groups of 3 animals each. Two groups were randomly assigned for SEQ ID NO: 5 and SEQ ID NO: 7 treatment while the third group served as control. SEQ ID NO: 5 and SEQ ID NO:7 were prepared at a concentration of 250 μg/ml so as to deliver a dose of 50 μg per 200 μl. The injections were given twice a day at 12 hour intervals so as to deliver a total dose of 100 μg. The treatment was continued daily for a period of 14 days. The anti-tumor activity of SEQ ID NO: 5 and SEQ ID NO: 7 was monitored by measuring tumor volumes every fourth day and calculating volumes using the formula 0.4×W^2×L (W=smaller dia, L=larger dia,).

trypsin = trypsin digestion of the polypeptide; format: in vitro ADME; details: trypsin 1:25 w/w, 37° C., pH 8.0-8.5
Procedure: On controlled digestion of the polypeptide peptide (SEQ ID NO:5), with enzyme trypsin, for ˜15 minutes, 3 major peaks were identifiable on analytical HPLC.
Briefly, the peptide was weighed, dissolved in NH4HCO3 buffer (pH 8.0) and mixed with freshly made enzyme trypsin (1 mg/ml in water) in a ratio of 1:25 (w/w) of enzyme: substrate, according to published protocol (Ref.: Methods in Mol. Bio., Vol. 32, Basic protein and peptide protocols, Enzymatic methods for cleaving proteins). The digestion mixture was incubated at 37° C. Aliquots were taken at different time points and analyzed on analytical HPLC (Shimadzu, Japan). The 15′ enzyme digest sample was picked up for analysis by MALDI-MS.

| SMILES | Percent cytotoxicity (KB (Oral); 1 nM) | Percent cytotoxicity (KB (Oral); 10 nM) | Percent cytotoxicity (KB (Oral); 100 nM) | Percent cytotoxicity (KB (Oral); 1 μM) | Percent cytotoxicity (KB (Oral); 10 μM) | Percent cytotoxicity (MiaPaCa.2 (Pancreas); 1 nM) | Percent cytotoxicity (MiaPaCa.2 (Pancreas); 10 nM) | Percent cytotoxicity (MiaPaCa.2 (Pancreas); 100 nM) | Percent cytotoxicity (MiaPaCa.2 (Pancreas); 1 μM) | Percent cytotoxicity (MiaPaCa.2 (Pancreas); 10 μM) | Percent cytotoxicity (PTC (Colon); 1 nM) | Percent cytotoxicity (PTC (Colon); 10 nM) | Percent cytotoxicity (PTC (Colon); 100 nM) | Percent cytotoxicity (PTC (Colon); 1 μM) | Percent cytotoxicity (PTC (Colon); 10 μM) | Percent cytotoxicity (L132 (Lung); 1 nM) | Percent cytotoxicity (L132 (Lung); 10 nM) | Percent cytotoxicity (L132 (Lung); 100 nM) | Percent cytotoxicity (L132 (Lung); 1 μM) | Percent cytotoxicity (L132 (Lung); 10 μM) | also measured |
| --- | --- | --- | --- | --- | --- | --- | --- | --- | --- | --- | --- | --- | --- | --- | --- | --- | --- | --- | --- | --- | --- |
| CSCC[C@H](NC(=O)[C@H](CC(C)C)NC(=O)[C@H](CCCCN)NC(=O)[C@H](CCCCN)NC(=O)C1(NC(=O)[C@H](CC(C)C)NC(=O)[C@@H](Cc2c[nH]c3ccccc23)NC(=O)[C@H](Cc2ccccc2)NC(=O)[C@@H](Cc2c[nH]c3ccccc23)NC(=O)[C@H](CCC(N)=O)NC(=O)[C@@H](Cc2ccccc2)NC(=O)[C@@H]2CCCN2C(=O)[C@H](CCCCN)NC(=O)[C@@H]2CCCN2C(=O)[C@@H](CCCNC(=N)N)NC(=O)[C@H](CCCCN)NC(=O)[C@H](CCCCN)NC(=O)[C@@H](NC(=O)[C@H]2NC(=O)C3(CCCC3)NC(=O)[C@H](CCCN)NC(=O)[C@@H](Cc3c[nH]c4ccccc34)NC(=O)[C@H](Cc3ccc(O)cc3)NC(=O)[C@@H](NC(=O)[C@H](N)Cc3ccccc3)CSSC2(C)C)[C@@H](C)O)CCCC1)C(=O)N[C@@H](Cc1ccc(O)cc1)C(=O)N1CCC[C@H]1C(=O)N[C@H](C(=O)N[C@@H](Cc1ccc(O)cc1)C(=O)N[C@@H](CC(C)C)C(=O)N[C@@H](CCCCN)C(=O)N[C@@H](CCCCN)C(=O)N[C@H](Cc1ccccc1)C(=O)N[C@@H](CCC(N)=O)C(=O)N[C@@H](Cc1c[nH]c2ccccc12)C(=O)N[C@@H](C)C(=O)N[C@H](C(=O)NC(C)(C)C(=O)N[C@@H](Cc1c[nH]cn1)C(=O)N[C@@H](CC(C)C)C(N)=O)C(C)C)[C@@H](C)O [SEQ ID NO: 5, P4-Lys-Lys-P3-Lys-Lys-P1-Lys-P2] (H-[dF]CY[dW][Orn][Ac5c][Pen]TKK[dR]PKP[dF]Q[dW]F[dW]L[Ac5c]KKLMYPTYLKK[dF]QWAV[Aib]HL-NH2; disulfide 2-7) | 10.6 ± 1.2 | 18.2 ± 1.9 | 30.7 ± 3.9 | 43.1 ± 5.3 | 98.3 ± 5.7 | 24.2 ± 2.7 | 37.8 ± 4.6 | 48.2 ± 4.8 | 59.6 ± 4.9 | 84.5 ± 6.3 | 16.5 ± 1.6 | 14.2 ± 2.2 | 16.8 ± 1.0 | 21.7 ± 2.9 | 27.9 ± 2.8 | 20.5 ± 3.2 | 21.5 ± 3.9 | 22.2 ± 2.8 | 28.2 ± 3.1 | 48.8 ± 3.6 | Percent cytotoxicity (MCF-7 (Breast); 1 nM): 29.7 ± 3.8; Percent cytotoxicity (MCF-7 (Breast); 10 nM): 28.2 ± 4.3; Percent cytotoxicity (MCF-7 (Breast); 100 nM): 35.3 ± 4.8; Percent cytotoxicity (MCF-7 (Breast); 1 μM): 59.4 ± 4.8; Percent cytotoxicity (MCF-7 (Breast); 10 μM): 85.4 ± 5.0; Percent cytotoxicity (MOLT-4 (Leukemia); 1 nM): 10.4 ± 0.7; Percent cytotoxicity (MOLT-4 (Leukemia); 10 nM): 18.7 ± 1.9; Percent cytotoxicity (MOLT-4 (Leukemia); 100 nM): 34.7 ± 4.7; Percent cytotoxicity (MOLT-4 (Leukemia); 1 μM): 54.3 ± 5.2; Percent cytotoxicity (MOLT-4 (Leukemia); 10 μM): 94.5 ± 6.1; Tumor regression [1]: 73.7%; time in which the polypeptide disappeared completely on incubation with trypsin (trypsin): ~5 h |
| CSCC[C@H](NC(=O)[C@H](CC(C)C)NC(=O)[C@H](CCCCN)NC(=O)[C@H](CCCCN)NC(=O)[C@H](CC(C)C)NC(=O)[C@H](Cc1c[nH]cn1)NC(=O)C(C)(C)NC(=O)[C@@H](NC(=O)[C@H](C)NC(=O)[C@H](Cc1c[nH]c2ccccc12)NC(=O)[C@H](CCC(N)=O)NC(=O)[C@@H](Cc1ccccc1)NC(=O)[C@H](CCCCN)NC(=O)[C@H](CCCCN)NC(=O)C1(NC(=O)[C@H](CC(C)C)NC(=O)[C@@H](Cc2c[nH]c3ccccc23)NC(=O)[C@H](Cc2ccccc2)NC(=O)[C@@H](Cc2c[nH]c3ccccc23)NC(=O)[C@H](CCC(N)=O)NC(=O)[C@@H](Cc2ccccc2)NC(=O)[C@@H]2CCCN2C(=O)[C@H](CCCCN)NC(=O)[C@@H]2CCCN2C(=O)[C@H](N)CCCNC(=N)N)CCCC1)C(C)C)C(=O)N[C@@H](Cc1ccc(O)cc1)C(=O)N1CCC[C@H]1C(=O)N[C@H](C(=O)N[C@@H](Cc1ccc(O)cc1)C(=O)N[C@@H](CC(C)C)C(=O)N[C@@H](CCCCN)C(=O)N[C@@H](CCCCN)C(=O)N[C@H](Cc1ccccc1)C(=O)N[C@H]1CSSC(C)(C)[C@@H](C(=O)N[C@H](C(N)=O)[C@@H](C)O)NC(=O)C2(CCCC2)NC(=O)[C@H](CCCN)NC(=O)[C@@H](Cc2c[nH]c3ccccc23)NC(=O)[C@H](Cc2ccc(O)cc2)NC1=O)[C@@H](C)O [SEQ ID NO: 7, P3-Lys-Lys-P2-Lys-Lys-P1-Lys-P4] (H-[dR]PKP[dF]Q[dW]F[dW]L[Ac5c]KK[dF]QWAV[Aib]HLKKLMYPTYLKK[dF]CY[dW][Orn][Ac5c][Pen]T-NH2; disulfide 34-39) | 13.9 ± 1.9 | 23.9 ± 1.8 | 34.8 ± 3.9 | 54.3 ± 5.8 | 82.8 ± 5.4 | 24.9 ± 2.8 | 22.9 ± 1.4 | 23.8 ± 2.9 | 28.8 ± 1.9 | 27.8 ± 2.8 | 13.5 ± 1.8 | 18.7 ± 0.5 | 23.5 ± 3.5 | 28.5 ± 2.1 | 17.9 ± 1.9 | 9.0 ± 0.6 | 10.4 ± 0.4 | 13.3 ± 0.1 | 14.9 ± 0.6 | 23.1 ± 0.9 | Percent cytotoxicity (MCF-7 (Breast); 1 nM): 18.9 ± 2.0; Percent cytotoxicity (MCF-7 (Breast); 10 nM): 19.0 ± 0.5; Percent cytotoxicity (MCF-7 (Breast); 100 nM): 22.9 ± 1.4; Percent cytotoxicity (MCF-7 (Breast); 1 μM): 23.6 ± 2.9; Percent cytotoxicity (MCF-7 (Breast); 10 μM): 31.4 ± 3.7; Percent cytotoxicity (MOLT-4 (Leukemia); 1 nM): 23.7 ± 1.6; Percent cytotoxicity (MOLT-4 (Leukemia); 10 nM): 34.9 ± 4.9; Percent cytotoxicity (MOLT-4 (Leukemia); 100 nM): 46.0 ± 4.9; Percent cytotoxicity (MOLT-4 (Leukemia); 1 μM): 54.3 ± 4.9; Percent cytotoxicity (MOLT-4 (Leukemia); 10 μM): 88.5 ± 6.8; Tumor regression [1]: 48.7% |

Reference: patent publication US6949513B2, “Polypeptides of covalently linked synthetic bioactive peptide analog(s) for treatment of cancer” (Dabur Research Foundation, priority 2001, dated 2005)
